Reference: ChEMBL document CHEMBL3813624, “Discovery of hydroxyl 1,2-diphenylethanamine analogs as potent cholesterol ester transfer protein inhibitors” (Bioorg Med Chem Lett, 2016)
In brackets after ≈: the same amount, converted by molar mass. Activity calls are given as the source filed them. No cut-off for these calls is given here.

Columns and labels:
[1] = molecular target: T1, Cholesteryl ester transfer protein (Homo sapiens, UniProt P11597); assay: Inhibition of human recombinant CETP assessed as reduction in [3H]cholesteryl ester transfer from [3H]CE-HDL to biotinylated LDL by scintillation proximity assay
T1 sequence (P11597 whole entry): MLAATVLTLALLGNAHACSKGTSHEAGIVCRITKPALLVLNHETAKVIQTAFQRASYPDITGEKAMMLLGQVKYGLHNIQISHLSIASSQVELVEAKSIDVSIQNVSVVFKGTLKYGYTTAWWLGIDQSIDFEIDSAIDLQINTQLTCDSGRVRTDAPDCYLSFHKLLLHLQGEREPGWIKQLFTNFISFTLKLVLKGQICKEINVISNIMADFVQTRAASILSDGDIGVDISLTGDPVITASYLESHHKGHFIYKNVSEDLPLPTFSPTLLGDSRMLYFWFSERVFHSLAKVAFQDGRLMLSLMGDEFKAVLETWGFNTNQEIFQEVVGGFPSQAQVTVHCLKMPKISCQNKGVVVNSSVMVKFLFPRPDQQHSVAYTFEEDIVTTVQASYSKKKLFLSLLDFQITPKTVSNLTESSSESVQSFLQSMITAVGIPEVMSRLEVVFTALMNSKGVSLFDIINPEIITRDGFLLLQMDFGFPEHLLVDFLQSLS

[2] = Metabolic stability in rat liver microsomes assessed as compound remaining at 3 uM after 10 mins by UV absorbance method; type: ADME; settings: read-out: Stability
[3] = Plasma concentration in dual transgenic mouse expressing human CETP/ApoB-100 at 30 mg/kg, po measured at 4 hrs post dose; type: ADME, organism-based
Oryctolagus cuniculus [4] = assay: Cardiotoxicity in rabbit assessed as changes in QT interval up to 10 mg/kg by electrophysiology method; type: toxicity, organism-based; settings: in vivo
Mus musculus = assay: In vivo inhibition of human CETP-mediated [3H]cholesteryl ester transfer in human CETP expressed transgenic mouse coexpressing ApoB-100 at 30 mg/kg, po measured at 2 to 8 hrs post dose; type: functional, organism-based
[5] = molecular target: T1, Cholesteryl ester transfer protein; assay: Inhibition of CETP in human whole plasma assessed as reduction in [3H]cholesteryl ester transfer from [3H]CE-HDL to LDL/VLDL; type: cell-free
Oryctolagus cuniculus [6] = assay: Cardiotoxicity in rabbit assessed as QT prolongation up to 10 mg/kg by electrophysiology method; type: toxicity, organism-based; settings: in vivo
[7] = Ratio of plasma concentration in dual transgenic mouse expressing human CETP/ApoB-100 at 30 mg/kg, po measured at 4 hrs post dose to IC50 for CETP in human whole plasma; type: ADME, organism-based; settings: in vivo
Oryctolagus cuniculus [8] = assay: Cardiotoxicity in rabbit assessed as QT prolongation at 30 mg/kg by electrophysiology method; type: toxicity, organism-based; settings: in vivo
Oryctolagus cuniculus [9] = assay: Cardiotoxicity in rabbit assessed as QRS prolongation at 30 mg/kg by electrophysiology method; type: toxicity, organism-based; settings: in vivo
hERG (KCNH2) [10] = molecular target: T2, hERG (KCNH2) (Homo sapiens, UniProt Q12809); assay: Inhibition of recombinant human ERG expressed in HEK293 cells assessed as inhibition of peak tail current at 1 uM by patch clamp assay relative to control; type: cell-based; settings: HEK293 cells expressing recombinant human ERG
[11] = Plasma concentration in dual transgenic mouse expressing human CETP/ApoB-100 at 30 mg/kg, po measured at 2 hrs post dose; type: ADME, organism-based
[12] = Plasma concentration in dual transgenic mouse expressing human CETP/ApoB-100 at 30 mg/kg, po measured at 8 hrs post dose; type: ADME, organism-based
[13] = Metabolic stability in human liver microsomes assessed as compound remaining at 3 uM after 10 mins by UV absorbance method; type: ADME; settings: read-out: Stability
Oryctolagus cuniculus [14] = assay: Cardiotoxicity in rabbit assessed as changes in QTcv interval up to 10 mg/kg by electrophysiology method; type: toxicity, organism-based; settings: in vivo
hERG (KCNH2) [15] = molecular target: T2, hERG (KCNH2); assay: Inhibition of recombinant human ERG expressed in HEK293 cells assessed as inhibition of peak tail current at 3 uM by patch clamp assay relative to control; type: cell-based; settings: HEK293 cells expressing recombinant human ERG
[16] = AUC (0 to 8 hrs) in dual transgenic mouse plasma expressing human CETP/ApoB-100 at 30 mg/kg, po; type: ADME, organism-based; set-up: dose 30 mg/kg, time < 8 hr, route oral
[17] = Metabolic stability in mouse liver microsomes assessed as compound remaining at 3 uM after 10 mins by UV absorbance method; type: ADME; settings: read-out: Stability
Oryctolagus cuniculus [18] = assay: Cardiotoxicity in rabbit assessed as changes in QTcf interval up to 10 mg/kg by electrophysiology method; type: toxicity, organism-based; settings: in vivo
[19] = Ratio of plasma concentration in dual transgenic mouse expressing human CETP/ApoB-100 at 30 mg/kg, po measured at 2 hrs post dose to IC50 for CETP in human whole plasma; type: ADME, organism-based; settings: in vivo
[20] = Aqueous solubility of compound; type: physicochemical; settings: buffer
[21] = molecular target: Voltage-gated inwardly rectifying potassium channel KCNH2 (Homo sapiens, UniProt Q12809); assay: Inhibition of recombinant human ERG flux expressed in HEK293 cells by patch clamp assay; type: cell-based
Sequence of Voltage-gated inwardly rectifying potassium channel KCNH2 (Q12809 whole entry): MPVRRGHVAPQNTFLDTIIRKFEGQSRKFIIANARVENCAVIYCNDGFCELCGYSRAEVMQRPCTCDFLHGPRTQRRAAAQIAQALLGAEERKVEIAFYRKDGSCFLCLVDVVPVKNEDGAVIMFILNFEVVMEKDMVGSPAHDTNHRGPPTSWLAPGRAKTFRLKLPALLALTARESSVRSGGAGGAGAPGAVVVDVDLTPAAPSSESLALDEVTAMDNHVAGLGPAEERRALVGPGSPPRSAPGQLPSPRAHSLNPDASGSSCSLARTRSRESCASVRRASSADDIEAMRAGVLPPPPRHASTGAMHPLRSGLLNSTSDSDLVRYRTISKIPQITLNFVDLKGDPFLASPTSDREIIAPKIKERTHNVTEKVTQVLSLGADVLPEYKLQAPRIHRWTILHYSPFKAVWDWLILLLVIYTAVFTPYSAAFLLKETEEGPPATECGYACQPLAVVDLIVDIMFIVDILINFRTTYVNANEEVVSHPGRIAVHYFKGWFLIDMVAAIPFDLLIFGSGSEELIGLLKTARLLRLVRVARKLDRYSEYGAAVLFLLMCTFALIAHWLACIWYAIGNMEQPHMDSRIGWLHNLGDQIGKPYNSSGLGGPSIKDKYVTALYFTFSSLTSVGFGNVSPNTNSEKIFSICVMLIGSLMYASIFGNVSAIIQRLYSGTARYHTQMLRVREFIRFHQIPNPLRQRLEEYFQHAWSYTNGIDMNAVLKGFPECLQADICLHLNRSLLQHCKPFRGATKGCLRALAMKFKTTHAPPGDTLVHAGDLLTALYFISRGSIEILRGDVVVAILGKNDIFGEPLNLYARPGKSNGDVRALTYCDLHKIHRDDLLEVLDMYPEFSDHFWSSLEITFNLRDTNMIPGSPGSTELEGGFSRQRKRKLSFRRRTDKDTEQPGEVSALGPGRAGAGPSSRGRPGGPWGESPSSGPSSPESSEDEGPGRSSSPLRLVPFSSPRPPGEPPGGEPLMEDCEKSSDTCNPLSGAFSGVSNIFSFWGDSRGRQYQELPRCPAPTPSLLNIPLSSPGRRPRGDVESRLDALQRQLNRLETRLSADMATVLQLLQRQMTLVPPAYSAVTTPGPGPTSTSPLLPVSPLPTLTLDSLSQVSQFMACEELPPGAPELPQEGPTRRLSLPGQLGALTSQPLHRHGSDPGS

T2 sequence (Q12809 whole entry): as above

| SMILES | IC50 [1] [nM] | remaining at 10 min, 3 µM [2] [%] | IC50 [5] [nM] | remaining at 10 min, 3 µM [13] [%] | remaining at 10 min, 3 µM [17] [%] | solubility [20] [µg/mL] | also measured |
| --- | --- | --- | --- | --- | --- | --- | --- |
| O[C@H](CN[C@@](Cc1ccccc1)(c1cc(F)cc(OC(F)(F)C(F)F)c1)c1ccc(Cl)cn1)C(F)(F)F | 14 | 84 | 900 | 100 | 88 |  | concentration at 4 h [3]: 3000 nM; Activity (Oryctolagus cuniculus [4]): Non-toxic; inhibition (Mus musculus): Active; Activity (Oryctolagus cuniculus [6]): Non-toxic; Ratio [7]: 3.3; Activity (Oryctolagus cuniculus [8]): Toxic; Activity (Oryctolagus cuniculus [9]): Toxic; inhibition at 1 µM (hERG (KCNH2) [10]): 43%; concentration at 2 h [11]: 5200 nM; concentration at 8 h [12]: 1300 nM; Activity (Oryctolagus cuniculus [14]): Non-toxic; inhibition at 3 µM (hERG (KCNH2) [15]): 87%; AUC(0-t) at 8 h [16]: 26.9 µM·h; Activity (Oryctolagus cuniculus [18]): Non-toxic; Ratio [19]: 5.7 |
| O=C(N[C@@](Cc1ccccc1)(c1cc(F)cc(C(F)(F)F)c1)c1ccc(Cl)cn1)c1ccc(F)c(C(F)(F)F)c1 | 52 | 97 | 7000 | 93 | 100 | < 1 |  |
| CC(C)Oc1cc([C@@](Cc2ccccc2)(NC[C@@H](O)CC(F)(F)F)c2cc(F)cc(OC(F)(F)C(F)F)c2)ccc1F | 2.5 |  | 169 |  |  |  | IC50 [21]: 23000 nM |
| CC(C)Oc1cc([C@@](Cc2ccccc2)(NC[C@@H](O)C(F)(F)F)c2cc(F)cc(OC(F)(F)C(F)F)c2)ccc1F | 1.8 | 83 | 55 | 83 | 85 |  | IC50 [21]: 21000 nM |

Now from value to compound, other results behind:

| IC50 [1] [nM] | remaining at 10 min, 3 µM [2] [%] | IC50 [5] [nM] | remaining at 10 min, 3 µM [13] [%] | remaining at 10 min, 3 µM [17] [%] | solubility [20] [µg/mL] | SMILES | also measured |
| --- | --- | --- | --- | --- | --- | --- | --- |
| 253 |  | 48000 |  |  | < 1 | CO[C@H](CN[C@@](Cc1ccccc1)(c1cc(F)cc(C(F)(F)F)c1)c1ccc(Cl)cn1)C(F)(F)F |  |
| 520 |  | 32000 |  |  | < 1 | C[C@@H](O)CN[C@@](Cc1ccccc1)(c1cc(F)cc(C(F)(F)F)c1)c1ccc(Cl)cn1 |  |
| 1.5 | 87 | 600 | 100 | 88 |  | OC(CN[C@@](Cc1ccccc1)(c1cc(F)cc(OC(F)(F)C(F)F)c1)c1ccc(Cl)cn1)CC(F)(F)F (stereo partly drawn) | concentration at 4 h [3]: 2600 nM; concentration at 2 h [11]: 5400 nM; concentration at 8 h [12]: 490 nM; AUC(0-t) at 8 h [16]: 18.1 µM·h |
| 3100 |  | 98000 |  |  | 37 (≈ 78.9 µM) | OC[C@@H](O)CN[C@@](Cc1ccccc1)(c1cc(F)cc(C(F)(F)F)c1)c1ccc(Cl)cn1 |  |
